Source: publication PMC11412489, “Coumarin derivatives as new anti-biofilm agents against Staphylococcus aureus” (PLOS ONE, 2024)
Like-named read-outs stand apart in the source and are kept apart here.

Experiments:
Assay type in all cases: cell-based, Staphylococcus aureus
[1] = test system: S. aureus; assay: Antibacterial activity (bacterial growth inhibition); details: at 100 μg/mL; for inhibition at 100 µg/mL: Staphylococcus aureus, read-out: Antibacterial Activity (% Inhibition ± SEM)
[2] = test system: biofilm of S. aureus ATCC 6538; assay: 96-well plate crystal violet assay for biofilm inhibition; details: for inhibition at 3.125 µg/mL / inhibition at 6.25 µg/mL / inhibition at 12.5 µg/mL / inhibition at 25 µg/mL / inhibition at 50 µg/mL / inhibition at 100 µg/mL: Staphylococcus aureus, ATCC6538
Description: The quantitative determination of biofilm inhibition was carried out by the crystal violet assay on a sterile 96-well plate with slight modifications. The glycerol stock of S. aureus was revived overnight at 37°C at 80 rpm. The overnight culture was then diluted 100 folds in fresh BHI broth, supplemented with 0.25% glucose. The cell density was adjusted to 1×10^7 and 195μL of the cell suspension was added in 96-well plate. […] Following that, the plate was washed with sterile distilled water in order to decant the non-adherent cells, and media. The plate was then dried at 60°C for 1 hour, and 200 μL of 0.1% (w/v) crystal violet was added to stain biofilm for 20 minutes. The plate was washed again, air dried, and dispensed 30% (v/v) acetic acid in each well to dissolve the biofilm. The inhibition of biofilm formation was analyzed by measuring the absorbance at 595 nm using the microplate reader (Multiskan Sky, Thermo Scientific, USA). The percent inhibition of biofilm formation was calculated via the following formula: 100−ƛTreated−ƛBlank/ƛControl−ƛBlank×100 Whereƛ=absorbance

[3] = test system: S. aureus biofilm; assay: Atomic force microscopy analysis of biofilm disruption; details: compared to control S. aureus cells, 24 hours
Description: The size and structure of disrupted biofilm was analyzed. Briefly, a pure single colony of S. aureus was inoculated in BHI broth and grown for 18–24 hours at 37°C. Following incubation, the cells were diluted in BHI broth, and density was adjusted to 1×10^7 before loading on a sterile silicon chip placed in 24-well plate, then silicon chips were treated with active compounds. The plate was then sealed, and placed in an incubator for 24 hours at 37°C. After incubation, the treated silicon chips were washed with autoclaved distilled water thrice, air dried, and the samples were analyzed by atomic force microscope (Agilent Technologies, USA).

[4] = test system: biofilm cells of the S. aureus strain (ATCC 6538); assay: Biofilm analysis by fluorescence microscopy (SYTO-9/PI); details: SYTO-9/PI staining, S. aureus ATCC 6538, 24 hours
Description: Briefly, 1×10^7 cells were loaded in 96-well plate, and treated with active compounds. Plate was sealed, and incubated for 24 hours at 37°C. Following incubation, plate was washed with sterile distilled water, and cells were stained with […] SYTO-9 and 5 μM PI, for 30 minutes in dark at room temperature. After incubation, the wells were washed again, and air dried. Images were taken, and then visualized by Nikon Eclipse TE2000, USA [23]. Propidium Iodide (PI) staining indicates membrane integrity, as it can only pass through compromised membranes of non-viable cells, giving red fluorescence. On the contrary, Syto-9 can pass through all cells despite of their membrane integrity, and binds to DNA/RNA by emitting green fluorescence.

[5] = S. aureus ATCC 6538, replicate 1, read-out: % Inhibition 1
[6] = S. aureus ATCC 6538, replicate 2, read-out: % Inhibition 2
[7] = S. aureus ATCC 6538, replicate 3, read-out: % Inhibition 3
[8] = S. aureus ATCC 6538, read-out: Mean % Inhibition
[9] = 100 µg/mL, S. aureus ATCC 6538, replicate 1, read-out: % Inhibition 1
[10] = 100 µg/mL, S. aureus ATCC 6538, replicate 2, read-out: % Inhibition 2
[11] = 100 µg/mL, S. aureus ATCC 6538, replicate 3, read-out: % Inhibition 3
[12] = 100 µg/mL, S. aureus ATCC 6538, read-out: Mean % Inhibition
[13] = at 100 μg/mL, biofilm of S. aureus, 24 hours, read-out: Antibiofilm Activity (% Inhibition ± SEM)
[14] = at 100 μg/mL, biofilm of S. aureus, 24 hours

Structure (SMILES) | inhibition at 100 µg/mL [1] | Antibacterial Activity (% Inhibition ± SEM) [1] | inhibition at 3.125 µg/mL [2, 5] | inhibition at 3.125 µg/mL [2, 6] | inhibition at 3.125 µg/mL [2, 7] | inhibition at 3.125 µg/mL [2, 8] | inhibition at 6.25 µg/mL [2, 5] | inhibition at 6.25 µg/mL [2, 6] | inhibition at 6.25 µg/mL [2, 7] | inhibition at 6.25 µg/mL [2, 8] | inhibition at 12.5 µg/mL [2, 5] | inhibition at 12.5 µg/mL [2, 6] | inhibition at 12.5 µg/mL [2, 7] | inhibition at 12.5 µg/mL [2, 8] | inhibition at 25 µg/mL [2, 5] | inhibition at 25 µg/mL [2, 6] | inhibition at 25 µg/mL [2, 7] | inhibition at 25 µg/mL [2, 8] | inhibition at 50 µg/mL [2, 5] | inhibition at 50 µg/mL [2, 6] | also measured
Cc1ccc2oc(=O)c(/C=N/Nc3nc(-c4cccc([N+](=O)[O-])c4)cs3)c(Cl)c2c1 [Compound 2, (E)-4-Chloro-6-methyl-3-((2-(4-(3-nitrophenyl)thiazol-2-yl)hydrazono)methyl)-2H-chromen-2-one] | 15 ± 4.53% | low antibacterial effect | 4.05% | 3.79% | 4.17% | 4% | 3.29% | 3.99% | 3.49% | 3.59% | 1.73% | 0.99% | 2.54% | 1.75% | 1.79% | 1.44% | 1.99% | 1.74% | 27% | 29.2% | inhibition at 50 µg/mL [2, 7]: 28.5%; inhibition at 50 µg/mL [2, 8]: 28.3%; inhibition at 100 µg/mL [2, 9]: 95%; inhibition at 100 µg/mL [2, 10]: 93.9%; inhibition at 100 µg/mL [2, 11]: 93.6%; inhibition at 100 µg/mL [2, 12]: 94.2%; inhibition at 100 µg/mL [2, 13]: 90 ± 3.24%; Antibiofilm Activity (% Inhibition ± SEM) [2, 14]: high potential to inhibit the biofilms; Biofilm disruption seen by AFM [3]: disrupt and degrade biofilm to varying degrees; Biofilm disruption seen by fluorescence microscopy [4]: Disruption on the surface of biofilm
Cc1ccc2oc(=O)c(/C=N/Nc3nc(-c4ccc(C#N)cc4)cs3)c(Cl)c2c1 [Compound 3, (E)-4-(2-(2-((4-Chloro-6-methyl-2-oxo-2H-chromen-3-yl)methylene)hydrazinyl)thiazol-4-yl)benzonitrile] | 27 ± 6.41% | low antibacterial effect | 12.7% | 11.7% | 13.9% | 12.8% | 22.7% | 21.1% | 22.5% | 22.1% | 26.9% | 29.2% | 27.4% | 27.8% | 55.9% | 57.8% | 56.6% | 56.8% | 74% | 76% | inhibition at 50 µg/mL [2, 7]: 77%; inhibition at 50 µg/mL [2, 8]: 75.6%; inhibition at 100 µg/mL [2, 9]: 93.2%; inhibition at 100 µg/mL [2, 10]: 90.2%; inhibition at 100 µg/mL [2, 11]: 93.1%; inhibition at 100 µg/mL [2, 12]: 92.2%; inhibition at 100 µg/mL [2, 13]: 91 ± 6.31%; Antibiofilm Activity (% Inhibition ± SEM) [2, 14]: high potential to inhibit the biofilms; Biofilm disruption seen by AFM [3]: disrupt and degrade biofilm to varying degrees; Biofilm disruption seen by fluorescence microscopy [4]: mild to extensive biofilm disruption and degradation
Cc1ccc2oc(=O)c(/C=N/Nc3nc(-c4ccc([N+](=O)[O-])cc4)cs3)c(Cl)c2c1 [Compound 4, (E)-4-Chloro-6-methyl-3-((2-(4-(4-nitrophenyl)thiazol-2-yl)hydrazono)methyl)-2H-chromen-2-one] | 21 ± 4.51% | low antibacterial effect | 2.92% | 1.79% | 3.04% | 2.58% | 7.04% | 8.05% | 9.02% | 8.04% | 6.69% | 5.79% | 5.68% | 6.05% | 29.1% | 30.1% | 28.1% | 29.1% | 66% | 67% | inhibition at 50 µg/mL [2, 7]: 66.1%; inhibition at 50 µg/mL [2, 8]: 66.4%; inhibition at 100 µg/mL [2, 9]: 86.8%; inhibition at 100 µg/mL [2, 10]: 84.3%; inhibition at 100 µg/mL [2, 11]: 86.6%; inhibition at 100 µg/mL [2, 12]: 85.9%; inhibition at 100 µg/mL [2, 13]: 90 ± 9.3%; Antibiofilm Activity (% Inhibition ± SEM) [2, 14]: high potential to inhibit the biofilms; Biofilm disruption seen by AFM [3]: disrupt and degrade biofilm to varying degrees; Biofilm disruption seen by fluorescence microscopy [4]: mild to extensive biofilm disruption and degradation
C/C(=N\Nc1nc(-c2ccc(Br)cc2)cs1)c1cc2ccccc2oc1=O [Compound 10, (E)-3-(1-(2-(4-(4-Bromophenyl)thiazol-2-yl)hydrazono)ethyl)-2H-chromen-2-one] | 18 ± 3.73% | low antibacterial effect | 1.98% | 1.44% | 1.54% | 1.65% | 5.34% | 4.99% | 5.53% | 5.29% | 7.56% | 7.29% | 7.21% | 7.35% | 2.34% | 2.21% | 2.09% | 2.21% | 39.5% | 39.8% | inhibition at 50 µg/mL [2, 7]: 39.8%; inhibition at 50 µg/mL [2, 8]: 39.7%; inhibition at 100 µg/mL [2, 9]: 69.4%; inhibition at 100 µg/mL [2, 10]: 69.5%; inhibition at 100 µg/mL [2, 11]: 68.9%; inhibition at 100 µg/mL [2, 12]: 69.3%; inhibition at 100 µg/mL [2, 13]: 69 ± 9.34%; Antibiofilm Activity (% Inhibition ± SEM) [2, 14]: high potential to inhibit the biofilms; Biofilm disruption seen by AFM [3]: Disrupted biofilm surfaces; Biofilm disruption seen by fluorescence microscopy [4]: Disruption on the surface of biofilm
